In brackets after ≈: the same amount, converted by molar mass. Residues, ends and D or L forms follow the SMILES beside them.
Legend:
[1] = Determination of peptide hydrophobicity with RP-HPLC (adjusted retention time); assay type: physicochemical; conditions: for tR’: Table 3, adjusted retention time as hydrophobicity; for tR’ / Adjusted retention time: RP-HPLC C18, linear 10–55% acetonitrile over 60 min; for tR’ / tR’ (adjusted retention time) / Adjusted retention time: 0.1% TFA, 25.0 °C, UV 214 nm, triplicate; for tR’ (adjusted retention time): Table 1 and b9, measure of hydrophobicity, RP-HPLC, Phenomenex Luna C18(2) 3.0 × 100 mm, 5 µm, linear 10–55% acetonitrile in water over 60 min, 0.5 mL/min, peptide 1 g/L; for Adjusted retention time: Table 2, nC = carbon atoms in fatty acid chain; for ∆tR: tR’ of the lipopeptide minus tR’ of C10-RR-NH2 or C12-RR-NH2, same RP-HPLC conditions
Experimental: To determine peptide hydrophobicity, the Waters Alliance e2695 system with a Waters 2998 PDA Detector (software-Empower®3) was used. All analyses were carried out on a Phenomenex Luna C18(2) column (3.0 × 100 mm, 5 µm particle size, 100 Å pore size). The peptides were dissolved in water (0.1% TFA, v/v) to obtain a concentration of 1 g/L. UV detection at 214 nm was used, and aliquots (10 µL) were eluted with a linear 10–55% acetonitrile gradient in deionized water over 60 min at 25.0 ± 0.1 °C. The mobile phase flow rate was 0.5 mL/min. Both eluents contained 0.1% (v/v) of TFA. Each peptide sample was analyzed in triplicate.

[2] = test system: A. baumannii ATCC BAA-1605; assay type: cell-based, Acinetobacter baumannii; conditions: ATCC BAA-1605, 18 h
Description: (§1) The Acinetobacter baumannii ATCC BAA-1605, Candida albicans ATCC 10231, Enterococcus faecium ATCC 700221, Klebsiella aerogenes ATCC 13048 (previously known as Enterobacter aerogenes), Klebsiella pneumoniae ATCC 700603, Pseudomonas aeruginosa ATCC 9027, Staphylococcus aureus ATCC 25923 and MRSA ATCC 33591, were acquired from the American Type Culture Collection (ATCC). Before running the tests, beads with cryo-protected microorganisms were transferred into fresh MHB (BioMaxima, Lublin, Poland) for bacteria or RPMI-1640 for fungi and incubated for 24 h at 37 °C. Then, the culture was seeded on the Mueller-Hinton agar (MHA) plates (BioMaxima, Lublin, Poland) for bacteria or Sabouraud dextrose agar (SDA) plates (BioMaxima, Lublin, Poland) for fungi and incubated as just mentioned. Cell densities for all assays were adjusted spectrophotometrically (Multiskan™ GO Microplate Spectrophotometer, Thermo Fisher Scientific, Vantaa, Finland) at 600 nm for bacteria and at 530 nm for fungi.
(§2) The MICs were determined by broth microdilution method according to the Clinical and Laboratory Standard Institute guidelines. For this purpose initial inoculums of bacteria (5 × 10^5 CFU/mL) in MHB (BioMaxima, Lublin, Poland) and fungi (2 × 10^3 CFU/mL) in RPMI-1640 with 2% D-glucose (Merck, Darmstadt, Germany) prepared with MOPS (pH 7.0 ± 0.1 at 25 °C; Merck, Darmstadt, Germany) were exposed to the ranging concentration of lipopeptides (0.5–256 µg/mL) and incubated at 37 °C for 18 h and 24 h respectively. The experiments were conducted on 96-well microtiter polystyrene plates (Kartell, Italy). The MIC was taken as the lowest peptide concentration at which a noticeable growth of microorganisms was inhibited. All experiments were conducted in triplicate.

S. aureus ATCC 25923 = assay type: cell-based, Staphylococcus aureus; conditions: ATCC 25923, 18 h
Description: as §1, §2

[3] = test system: S. aureus ATCC 33591 (MRSA); assay type: cell-based, Staphylococcus aureus; conditions: ATCC 33591, 18 h
Description: as §1, §2

[4] = test system: human red blood cells (hRBCs); assay type: cell-based; conditions: red cells of human, 1 h
Experimental: The hemolysis assay was performed as described earlier according to the method of Avrahami and Shai. Fresh human red blood cells (hRBCs) with anticoagulant (EDTA) were rinsed three times with a PBS (Merck, Darmstadt, Germany) by centrifugation at 800× g for 10 min and resuspended in PBS. Lipopeptides were serially diluted on 96-well microtiter polystyrene plate and hRBCs were added to reach final volume of 100 µL. Peptide concentration ranged between 0.5 and 256 µg/mL and final hRBCs concentration was 4% (v/v). Controls for zero hemolysis (blank) and 100% hemolysis consisted of hRBCs suspended in PBS and 1% of Triton-X 100 (Merck, Darmstadt, Germany), respectively. The plate was incubated for 1 h at 37 °C and then centrifuged (800× g, 10 min, 4 °C). Subsequently, supernatant was […] to new microtiter plates and absorbance at 540 nm were measured. All experiments were conducted in triplicate. Protocol of the study received approval from the local Bioethics Committee at the Medical University of Gdańsk (NKBBN/262/2019).

C. albicans ATCC 10231 = assay type: cell-based, Candida albicans; conditions: ATCC 10231, 24 h, pH 7
Description: as §1, §2

E. faecium ATCC 700221 = assay type: cell-based, Enterococcus faecium; conditions: ATCC 700221, 18 h
Description: as §1, §2

[5] = test system: K. pneumoniae ATCC 700603; assay type: cell-based, Klebsiella pneumoniae; conditions: ATCC 700603, 18 h
Description: as §1, §2

K. aerogenes ATCC 13048 = assay type: cell-based, Klebsiella aerogenes; conditions: ATCC 13048, 18 h
Description: as §1, §2

P. aeruginosa ATCC 9027 = assay type: cell-based, Pseudomonas aeruginosa; conditions: ATCC 9027, 18 h
Description: as §1, §2

SMILES | tR’ [1] | tR’ (adjusted retention time) [1] | MIC SA (S. aureus ATCC 25923) | HC50 [4] | MIC CA (C. albicans ATCC 10231) | MIC PA (P. aeruginosa ATCC 9027) | further results
CCCCCCCC(=O)N[C@@H](CCCNC(=N)N)C(=O)N[C@@H](CCCNC(=N)N)C(N)=O [compound 1, C8-RR-NH2, reference compound] (HELM PEPTIDE1{[CCCCCCCC(=O)[*:2]].R.R.[am]}$$$$V2.0) | 14.46 min | – | – | – | – | – | –
CCCCCCCCCC(=O)N[C@@H](CCCNC(=N)N)C(=O)N[C@@H](CCCNC(=N)N)C(N)=O [compound 2, C10-RR-NH2, reference compound] (HELM PEPTIDE1{[CCCCCCCCCC(=O)[*:2]].R.R.[am]}$$$$V2.0) | 24.30 min | 24.30 min | – | – | – | – | –
CCCCCCCCCCCC(=O)N[C@@H](CCCNC(=N)N)C(=O)N[C@@H](CCCNC(=N)N)C(N)=O [compound 3, C12-RR-NH2, reference compound] (HELM PEPTIDE1{[CCCCCCCCCCCC(=O)[*:2]].R.R.[am]}$$$$V2.0) | 32.58 min | 32.58 min | 32 µg/mL (≈ 62.5 µM) | >256 µg/mL | 64 µg/mL (≈ 125 µM) | 128 µg/mL (≈ 250 µM) | MIC A [2]: 256 µg/mL (≈ 500 µM); MIC S [3]: 32 µg/mL (≈ 62.5 µM); MIC E1 (E. faecium ATCC 700221): 32 µg/mL (≈ 62.5 µM); MIC K [5]: >256 (-) µg/mL; MIC E2 (K. aerogenes ATCC 13048): >256 (-) µg/mL
CCCCCCCCCCCCCC(=O)N[C@@H](CCCNC(=N)N)C(=O)N[C@@H](CCCNC(=N)N)C(N)=O [compound 4, C14-RR-NH2, reference compound] (HELM PEPTIDE1{[CCCCCCCCCCCCCC(=O)[*:2]].R.R.[am]}$$$$V2.0) | 39.79 min | – | 8 µg/mL (≈ 14.8 µM) | 68.43 (±1.41) µg/mL | 8 µg/mL (≈ 14.8 µM) | 32 µg/mL (≈ 59.3 µM) | MIC A [2]: 64 µg/mL (≈ 119 µM); MIC S [3]: 8 µg/mL (≈ 14.8 µM); MIC E1 (E. faecium ATCC 700221): 8 µg/mL (≈ 14.8 µM); MIC K [5]: 256 µg/mL (≈ 474 µM); MIC E2 (K. aerogenes ATCC 13048): 256 µg/mL (≈ 474 µM)
CCCCCCCCCCCCCC(=O)N[C@@H](CC(=O)O)C(=O)N[C@@H](CCCNC(=N)N)C(=O)N[C@@H](CCCNC(=N)N)C(N)=O [compound 18, C14-DRR-NH2] (HELM PEPTIDE1{[CCCCCCCCCCCCCC(=O)[*:2]].D.R.R.[am]}$$$$V2.0) | 40.25 min | – | 64 µg/mL (≈ 97.7 µM) | 49.95 (±1.00) µg/mL | 32 µg/mL (≈ 48.9 µM) | 128 µg/mL (≈ 195 µM) | –
CCCCCCCCCCCCCC(=O)N[C@@H](CCC(=O)O)C(=O)N[C@@H](CCCNC(=N)N)C(=O)N[C@@H](CCCNC(=N)N)C(N)=O [compound 22, C14-ERR-NH2] (HELM PEPTIDE1{[CCCCCCCCCCCCCC(=O)[*:2]].E.R.R.[am]}$$$$V2.0) | 40.17 min | – | 64 µg/mL (≈ 95.7 µM) | 59.51 (±4.00) µg/mL | 32 µg/mL (≈ 47.8 µM) | 128 µg/mL (≈ 191 µM) | –
CCCCCCCCCCCC(=O)NCC(=O)N[C@@H](CCCNC(=N)N)C(=O)N[C@@H](CCCNC(=N)N)C(N)=O [compound 29, C12-GRR-NH2] | 33.20 min | – | 32 µg/mL (≈ 56.3 µM) | >256 µg/mL | 64 µg/mL (≈ 113 µM) | 128 µg/mL (≈ 225 µM) | –
CCCCCCCC(=O)N[C@@H](CCCC)C(=O)N[C@@H](CCCNC(=N)N)C(=O)N[C@@H](CCCNC(=N)N)C(N)=O [compound 63, C8-NleRR-NH2] (HELM PEPTIDE1{[CCCCCCCC(=O)[*:2]].[Nle].R.R.[am]}$$$$V2.0) | – | – | – | – | – | – | Adjusted retention time [1]: 25.429 min
CCCCCCCCCC(=O)N[C@@H](CCCC)C(=O)N[C@@H](CCCNC(=N)N)C(=O)N[C@@H](CCCNC(=N)N)C(N)=O [compound 64, C10-NleRR-NH2] (HELM PEPTIDE1{[CCCCCCCCCC(=O)[*:2]].[Nle].R.R.[am]}$$$$V2.0) | – | – | 32 µg/mL (≈ 53.6 µM) | >256 µg/mL | 64 µg/mL (≈ 107 µM) | 64 µg/mL (≈ 107 µM) | Adjusted retention time [1]: 33.155 min
CCCCCCCCCCCC(=O)N1CCC[C@H]1C(=O)N[C@@H](CCCNC(=N)N)C(=O)N[C@@H](CCCNC(=N)N)C(N)=O [compound 73, C12-PRR-NH2] | 35.82 min | – | 32 µg/mL (≈ 52.6 µM) | >256 µg/mL | 64 µg/mL (≈ 105 µM) | 64 µg/mL (≈ 105 µM) | –
CCCCCCCCCCCC(=O)N[C@H](C(=O)N[C@@H](CCCNC(=N)N)C(=O)N[C@@H](CCCNC(=N)N)C(N)=O)[C@@H](C)O [compound 89, C12-TRR-NH2] (HELM PEPTIDE1{[CCCCCCCCCCCC(=O)[*:2]].T.R.R.[am]}$$$$V2.0) | 33.82 min | – | 32 µg/mL (≈ 52.2 µM) | >256 µg/mL | 64 µg/mL (≈ 104 µM) | 128 µg/mL (≈ 209 µM) | –
CCCCCCCCC(CCCCCC)C(=O)N[C@@H](CCCNC(=N)N)C(=O)N[C@@H](CCCNC(=N)N)C(N)=O (stereo partly drawn) [compound 105, C10(6)-RR-NH2] | – | – | 4 µg/mL (≈ 7.04 µM) | 200.25 (±16.07) µg/mL | 16 µg/mL (≈ 28.2 µM) | 8 µg/mL (≈ 14.1 µM) | MIC A [2]: 256 µg/mL (≈ 451 µM); MIC S [3]: 4 µg/mL (≈ 7.04 µM); MIC E1 (E. faecium ATCC 700221): 8 µg/mL (≈ 14.1 µM); MIC K [5]: >256 (-) µg/mL; MIC E2 (K. aerogenes ATCC 13048): >256 (-) µg/mL
CCCCCCCCCC(=O)N[C@@H](CCCNC(=N)N)C(=O)N[C@@H](Cc1ccccc1)C(=O)N[C@@H](CCCNC(=N)N)C(N)=O [compound 106, C10-RFR-NH2] (HELM PEPTIDE1{[CCCCCCCCCC(=O)[*:2]].R.F.R.[am]}$$$$V2.0) | – | 31.44 min | – | – | – | – | ∆tR [1]: 7.14 min
CCCCCCCCCCCC(=O)N[C@@H](CCCNC(=N)N)C(=O)N[C@@H](Cc1ccccc1)C(=O)N[C@@H](CCCNC(=N)N)C(N)=O [compound 107, C12-RFR-NH2] (HELM PEPTIDE1{[CCCCCCCCCCCC(=O)[*:2]].R.F.R.[am]}$$$$V2.0) | – | 38.67 min | – | – | – | – | ∆tR [1]: 6.09 min
CCCCCCCCCC(=O)N[C@@H](CCCNC(=N)N)C(=O)N[C@@H](CCCNC(=N)N)C(=O)N[C@@H](Cc1ccccc1)C(N)=O [compound 108, C10-RRF-NH2] (HELM PEPTIDE1{[CCCCCCCCCC(=O)[*:2]].R.R.F.[am]}$$$$V2.0) | – | 31.07 min | – | – | – | – | ∆tR [1]: 6.77 min
CCCCCCCCCCCC(=O)N[C@@H](CCCNC(=N)N)C(=O)N[C@@H](CCCNC(=N)N)C(=O)N[C@@H](Cc1ccccc1)C(N)=O [compound 109, C12-RRF-NH2] (HELM PEPTIDE1{[CCCCCCCCCCCC(=O)[*:2]].R.R.F.[am]}$$$$V2.0) | – | 38.02 min | – | – | – | – | ∆tR [1]: 5.44 min

— article PMC7024302, “Ultrashort Cationic Lipopeptides–Effect of N-Terminal Amino Acid and Fatty Acid Type on Antimicrobial Activity and Hemolysis” (Molecules, 2020)
